Active and inactive are the calls of the source. The calls are words filed in the database; no cut-off is given here.
System: HL-60
Assay: Cytotoxicity against human HL60 cells assessed as cell viability at 30 uM after 24 hrs by MTS assay
Assay type: functional
Conditions: for viability at 30 µM: HL-60, 24 h, read-out: Activity

| Structure (SMILES) | Activity | viability at 30 µM |
| --- | --- | --- |
| COC(=O)c1cc(O)c2[nH]c3ccccc3c2c1CC=C(C)C | inactive |  |
| COC(=O)c1cc(OC)c2[nH]c3ccccc3c2c1/C=C/C(C)(C)O [CLAUSAMINE E] |  | 47.3% |
| O=Cc1cc2c(cc1O)[nH]c1ccccc12 | inactive |  |
| C=C(C)C1Cc2c(cc(OC)c3[nH]c4ccccc4c23)C(=O)O1 (stereo not drawn) [CLAUSAMINE B] |  | 80.3% |
| COc1cc2c(c3c1[nH]c1ccccc13)CC(C(C)(C)O)OC2=O (stereo not drawn) [CLAUSAMINE C] |  | 79.7% |
| COc1cc2[nH]c3ccccc3c2cc1C=O | inactive |  |
| COC(=O)c1cc(OC)c2[nH]c3ccccc3c2c1CC=C(C)C | inactive |  |
| COC(=O)c1cc2c(cc1O)[nH]c1ccccc12 | inactive |  |

From ChEMBL document CHEMBL1153771, “Gamma-lactone carbazoles from Clausena anisata” (2009)
